Each structure is given as a SMILES string. Some results are limits rather than exact numbers.

Three compounds from paper PMC10722238, “Development and validation of PAMPA-BBB QSAR model to predict brain penetration potential of novel drug candidates” (Frontiers in Pharmacology, 2023) can be followed below.

This series can be described thus: Stirring Double-Sink PAMPA-BBB permeability assay. It counts as in vitro ADME, porcine. Conditions: for PAMPA-BBB permeability category of control compound: control compounds used in each plate, category in words; for Papp at 60 min, 0.05 mM: pig, PAMPA, control compounds run in each plate for over 50 plates, 0.5% DMSO, phosphate buffer, room temperature, UV readout, read-out: PAMPA-BBB permeability Pe (mean ± S.D). An excerpt: The stirring Double-SinkTM PAMPA-BBB method patented by Pion Inc. (Billerica, MA) was employed to determine the permeability of compounds ([[…], 2013]). The PAMPA lipid membrane, which consists of porcine brain lipid extract dissolved in alkane (Pion Inc.), was optimized to predict BBB passive permeability. This membrane was immobilized on a PVDF matrix of a 96 well “acceptor” filter plate placed on top of a 96 well “donor” plate containing coated magnetic stirrers. The test articles, stocked in 10 mM DMSO solutions, were diluted to 0.05 mM in aqueous phosphate buffer and the concentration of DMSO was 0.5% in the final solution. During the 60-min permeation study period, conducted at room temperature, the test samples in the donor compartment were stirred using the Gutbox technology (Pion Inc.) to reduce the aqueous boundary layer to 60 μm. The test article concentrations in the “donor” and “acceptor” compartments were measured using a UV plate reader (Nano Quant, Infinite® 200 PRO, Tecan Inc., Männedorf, Switzerland). Permeability (Pe) calculations were performed using Pion Inc. Software and were expressed in units of 10^-6 cm/s.
A general note: In PAMPA a lipid-coated filter parts donor from acceptor wells.

Take `Cn1c(=O)c2c(ncn2C)n(C)c1=O` [Caffeine, caffeine]: the “PAMPA-BBB permeability category of control compound” value (“PAMPA-BBB permeability category” for short) was “low permeability” and the Papp at 60 min, 0.05 mM is less than 1 ×10⁻⁶ cm/s.

`NC(=O)N1c2ccccc2C=Cc2ccccc21` [Carbamazepine, carbamazepine]: the “PAMPA-BBB permeability category” value was “moderate permeability” and the Papp at 60 min, 0.05 mM worked out at 21 ± 2.3 ×10⁻⁶ cm/s.

Turning to `CC(=O)[C@H]1CC[C@H]2[C@@H]3CCC4=CC(=O)CC[C@]4(C)[C@H]3CC[C@]12C` [Progesterone, progesterone], the “PAMPA-BBB permeability category” value is “high permeability” and the Papp at 60 min, 0.05 mM is 87 ± 10.1 ×10⁻⁶ cm/s.
